Values quoted from earlier work in patent US20230330185A1, “METHODS AND COMPOSITIONS FOR TRANSDUCING HEMATOPOIETIC STEM AND PROGENITOR CELLS IN VIVO” (Magenta Therapeutics, Inc., priority 2020, published 2023).

Tested on: hematopoietic stem and progenitor cells
Settings: as described in U.S. Pat. No. 6,080,398 and 6,447,766; cited from earlier work

Substance	potency to induce hematopoietic stem and progenitor cell mobilization, relative to parent peptide
Gro-β T N65D: variant of Gro-β T with aspartic acid in place of asparagine at position 65, SEQ ID NO: 4	substantially greater than that of Gro-β T
Gro-β T: truncated Gro-β with deletion of the first four N-terminal amino acids, SEQ ID NO: 2; CXCR2 agonist	superior to that of Gro-β by multiple orders of magnitude
